From patent EP0476944B1, “Aromatase inhibiting 4(5)-imidazoles” (ORION-YHTYMÄ OY, priority 1990, dated 1992)

Experiment: Acute toxicity, oral, in mice
Settings: mouse, in vivo; oral administration; young adult female mice of NMRI-strain; read-out: Acute toxicity, LD₅₀
Protocol: Acute toxicity, LD₅₀, was determined by using young adult female mice of NMRI-strain. The administration was oral. The LD₅₀-value for 4-[2,4-bis(4-fluorophenyl)butyl]-1H-imidazole was 400 mg/kg.

Fc1ccc(CCC(Cc2c[nH]cn2)c2ccc(F)cc2)cc1 (stereo not shown) [Compound 3, 4-[2,4-bis(4-fluorophenyl)butyl]-1H-imidazole]
LD50: 400 mg/kg
